Reference: patent publication US10000507B2, “Furo- and thieno-pyridine carboxamide compounds useful as pim kinase inhibitors” (Incyte Corporation, priority 2013, dated 2018)

Columns and labels:
Format in all cases: biochemical
Pim-1 = Pim-1 (Homo sapiens (Human), UniProt P11309); test: Pim-1 kinase assay; conditions: 1 mM ATP, biotin-labeled BAD peptide substrate; read-out: Pim1 IC50
Method: (§1) Pim-1 and Pim-3 kinase assays-20 μL reactions were run in white 384 well polystyrene plates dotted with 0.8 μL compound/DMSO in the assay buffer (50 mM Tris, pH 7.5, 0.01% Tween-20, 5 mM MgCl2, 0.01% BSA, 5 mM DTT), containing […] Biotin-labeled BAD peptide substrate (AnaSpec 62269), 1 mM ATP, and 2.5 pM (Pim-1, Invitrogen PV3503) or 1.25 pM (Pim-3, Millipore 14-738) enzyme for 1 h at 25° C. Reactions were stopped by addition of 10 μL STOP Buffer (150 mM Tris, pH=7.5, 150 mM NaCl, 75 mM EDTA, 0.01% Tween-20, 0.3% BSA) supplemented with Phospho-Bad (Ser112) Antibody (Cell Signaling 9291) diluted 666-fold, and Streptavidin donor beads (PerkinElmer 6760002) along with Protein-A acceptor beads (PerkinElmer 6760137) at 15 μg/mL each. Supplementation of the STOP buffer with beads and stopping the reactions were done under reduced light. Prior to the stopping reactions STOP buffer with beads was pre-incubated for 1 h in the dark at room temperature. After stopping the reactions, plates were incubated for 1 h in the dark at room temperature before reading on a PHERAstar FS plate reader (BMG Labtech) under reduced light.

Pim-3 = Pim-3 (Homo sapiens (Human), UniProt Q86V86); test: Pim-3 kinase assay; conditions: 1 mM ATP, biotin-labeled BAD peptide substrate; read-out: Pim3 IC50
Method: as §1

Pim-2 = Pim-2 (Homo sapiens (Human), UniProt Q9P1W9); test: Pim-2 kinase assay; conditions: 1 mM ATP, fluorescein-labeled CREBtide peptide substrate; read-out: Pim2 IC50
Method: Pim-2 kinase assay-20 μL reactions were run in white 384 well polystyrene plates dotted with 0.8 μL compound/DMSO in the assay buffer (50 mM Tris, pH 7.5, 0.01% Tween-20, 5 mM MgCl2, 0.01% BSA, 5 mM DTT), containing 0.05 μm Fluorescein-labeled CREBtide peptide substrate (Invitrogen PV3508), 1 mM ATP, and 1 nM enzyme (Invitrogen PV3649) for 2 h at 25° C. Reactions were stopped by addition of 10 μL TR-FRET Dilution Buffer (Invitrogen PV3574) with 30 mM EDTA and 1.5 nM LanthaScreen Tb-CREB pSer133 antibody (Invitrogen PV3566). After 30 min. incubation at room temperature, plates were read on a PHERAstar FS plate reader (BMG Labtech).

Chain of Pim-2 (Q9P1W9 whole entry): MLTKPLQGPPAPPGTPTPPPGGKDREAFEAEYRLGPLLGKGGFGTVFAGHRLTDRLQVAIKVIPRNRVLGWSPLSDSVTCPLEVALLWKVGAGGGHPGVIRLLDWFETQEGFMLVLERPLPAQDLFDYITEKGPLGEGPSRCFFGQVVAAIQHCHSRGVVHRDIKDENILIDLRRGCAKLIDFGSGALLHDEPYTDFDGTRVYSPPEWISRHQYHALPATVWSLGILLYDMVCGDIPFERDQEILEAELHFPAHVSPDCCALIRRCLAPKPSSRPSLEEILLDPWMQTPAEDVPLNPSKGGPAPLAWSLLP
Chain of Pim-1 (P11309 whole entry): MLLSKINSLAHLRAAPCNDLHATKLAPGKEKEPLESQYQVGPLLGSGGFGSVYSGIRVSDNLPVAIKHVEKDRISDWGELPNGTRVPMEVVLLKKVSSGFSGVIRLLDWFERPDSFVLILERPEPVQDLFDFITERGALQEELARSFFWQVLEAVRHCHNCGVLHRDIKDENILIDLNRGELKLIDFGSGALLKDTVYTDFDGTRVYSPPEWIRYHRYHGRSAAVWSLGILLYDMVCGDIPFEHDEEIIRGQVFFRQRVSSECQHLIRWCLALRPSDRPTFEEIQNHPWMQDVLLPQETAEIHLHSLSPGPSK

Row | Compound | IC50 (Pim-1) | IC50 (Pim-3) | IC50 (Pim-2)
1 | Nc1oc2cc(Br)cnc2c1C(=O)Nc1cnccc1N1CCC[C@H](N)C1 [Example 54, 2-amino-N-{4-[(3S)-3-aminopiperidin-1-yl]pyridin-3-yl}-6-bromo-furo[3,2-b]pyridine-3-carboxamide] | ≤ 10 nM | ≤ 10 nM | 10 to 100 nM
2 | Cc1ccnc2c(C(=O)Nc3cnccc3N3CCC[C@H](N)C3)c(N)oc12 [Example 55, 2-amino-N-{4-[(3S)-3-aminopiperidin-1-yl]pyridin-3-yl}-7-methyl-furo[3,2-b]pyridine-3-carboxamide] | 10 to 100 nM | ≤ 10 nM | > 2000 nM
3 | Cn1ncc(NC(=O)c2c(N)oc3cc(C(F)(F)F)cnc23)c1N1CCCC(N)CC1 (stereo not drawn) [Example 56, 2-amino-N-[5-(4-aminoazepan-1-yl)-1-methyl-1H-pyrazol-4-yl]-6-trifluoromethyl-furo[3,2-b]pyridine-3-carboxamide] | ≤ 10 nM | ≤ 10 nM | 10 to 100 nM
4 | Cn1ncc(NC(=O)c2c(N)oc3cc(Cl)cnc23)c1N1CCCC(N)CC1 (stereo not drawn) [Example 57, 2-Amino-N-[5-(4-aminoazepan-1-yl)-1-methyl-1H-pyrazol-4-yl]-6-chlorofuro[3,2-b]pyridine-3-carboxamide] | ≤ 10 nM | ≤ 10 nM | 100 to 1000 nM
5 | Cn1ncc(NC(=O)c2c(N)oc3c(Cl)ccnc23)c1N1CCCC(N)CC1 (stereo not drawn) [Example 58, 2-amino-N-[5-(4-aminoazepan-1-yl)-1-methyl-1H-pyrazol-4-yl]-7-chlorofuro[3,2-b]pyridine-3-carboxamide] | ≤ 10 nM | ≤ 10 nM | 100 to 1000 nM
6 | CCCc1cnc2c(C(=O)Nc3cnn(C)c3N3CCCC(N)CC3)c(N)oc2c1 (stereo not drawn) [Example 59, 2-amino-N-[5-(4-aminoazepan-1-yl)-1-methyl-1H-pyrazol-4-yl]-6-propylfuro[3,2-b]pyridine-3-carboxamide] | ≤ 10 nM | ≤ 10 nM | 10 to 100 nM
7 | Nc1oc2cccnc2c1C(=O)Nc1cnccc1N1C[C@@H](N)C[C@@H](C(F)(F)F)C1 [Example 60, 2-amino-N-{4-[(3S,5R)-3-amino-5-(trifluoromethyl)piperidin-1-yl]pyridin-3-yl}-furo[3,2-b]pyridine-3-carboxamide] | ≤ 10 nM | ≤ 10 nM | 10 to 100 nM
8 | Nc1oc2cc(C(F)(F)F)cnc2c1C(=O)Nc1cnccc1N1C[C@@H](N)C[C@@H](C(F)(F)F)C1 [Example 61, 2-amino-N-{4-[(3S,5R)-3-amino-5-(trifluoromethyl)piperidin-1-yl]pyridin-3-yl}-6-trifluoromethyl-furo[3,2-b]pyridine-3-carboxamide] | ≤ 10 nM | ≤ 10 nM | 10 to 100 nM
9 | Nc1oc2cc(Cl)cnc2c1C(=O)Nc1cnccc1N1C[C@@H](N)C[C@@H](C(F)(F)F)C1 [Example 62, 2-amino-N-{4-[(3S,5R)-3-amino-5-(trifluoromethyl)piperidin-1-yl]pyridin-3-yl}-6-chlorofuro[3,2-b]pyridine-3-carboxamide] | ≤ 10 nM | ≤ 10 nM | 10 to 100 nM
10 | Nc1oc2cc(F)cnc2c1C(=O)Nc1cnccc1N1C[C@@H](N)C[C@@H](C(F)(F)F)C1 [Example 63, 2-amino-N-{4-[(3S,5R)-3-amino-5-(trifluoromethyl)piperidin-1-yl]pyridin-3-yl}-6-fluorofuro[3,2-b]pyridine-3-carboxamide] | ≤ 10 nM | ≤ 10 nM | 10 to 100 nM
11 | Cc1cncc(NC(=O)c2c(N)oc3cccnc23)c1N1CC[C@H](N)C1 [Example 64, 2-amino-N-{4-[(3S)-3-aminopyrrolidin-1-yl]-5-methylpyridin-3-yl}furo[3,2-b]pyridine-3-carboxamide] | ≤ 10 nM | ≤ 10 nM | 100 to 2000 nM
12 | C[C@@H]1C[C@H](N)CN(c2ccncc2NC(=O)c2c(N)oc3cccnc23)C1 [Example 65, 2-amino-N-{4-[(3S,5R)-3-amino-5-methyl-piperidin-1-yl]pyridin-3-yl}-furo[3,2-b]pyridine-3-carboxamide] | ≤ 10 nM | ≤ 10 nM | 10 to 100 nM
13 | C[C@H]1CN(c2ccncc2NC(=O)c2c(N)oc3cc(Cl)cnc23)C[C@@H](N)[C@@H]1O [Example 66, 2-amino-N-{4-[(3R,4R,5S)-3-amino-4-hydroxy-5-methylpiperidin-1-yl]pyridin-3-yl}-6-chlorofuro[3,2-b]pyridine-3-carboxamide] | ≤ 10 nM | ≤ 10 nM | 10 to 100 nM
14 | CCCc1cnc2c(C(=O)Nc3cnccc3N3C[C@@H](N)[C@H](O)[C@@H](C)C3)c(N)oc2c1 [Example 67, 2-Amino-N-{4-[(3R,4R,5S)-3-amino-4-hydroxy-5-methylpiperidin-1-yl]pyridin-3-yl}-6-propylfuro[3,2-b]pyridine-3-carboxamide] | ≤ 10 nM | ≤ 10 nM | ≤ 10 nM
15 | C[C@H]1CN(c2ccncc2NC(=O)c2c(N)oc3cc(C(F)(F)F)cnc23)C[C@@H](N)[C@@H]1O [Example 68, 2-Amino-N-{4-[(3R,4R,5S)-3-amino-4-hydroxy-5-methylpiperidin-1-yl]pyridin-3-yl}-6-(trifluoromethyl)furo[3,2-b]pyridine-3-carboxamide] | ≤ 10 nM | ≤ 10 nM | 10 to 100 nM
16 | CCCc1cnc2c(C(=O)Nc3cnccc3N3C[C@@H](N)C[C@@H](C(F)(F)F)C3)c(N)oc2c1 [Example 69, 2-Amino-N-{4-[(3S,5R)-3-amino-5-(trifluoromethyl)piperidin-1-yl]pyridin-3-yl}-6-propylfuro[3,2-b]pyridine-3-carboxamide] | ≤ 10 nM | ≤ 10 nM | ≤ 10 nM
17 | CCCc1cnc2c(C(=O)Nc3cnccc3N3C[C@H](C)C[C@H](N)C3)c(N)oc2c1 [Example 70, 2-Amino-N-{4-[(3S,5R)-3-amino-5-methyl-piperidin-1-yl]pyridin-3-yl}-6-propylfuro[3,2-b]pyridine-3-carboxamide] | ≤ 10 nM | ≤ 10 nM | 10 to 100 nM
18 | C[C@@H]1C[C@H](N)CN(c2ccncc2NC(=O)c2c(N)oc3cc(F)cnc23)C1 [Example 71, 2-Amino-N-{4-[(3S,5R)-3-amino-5-methyl-piperidin-1-yl]pyridin-3-yl}-6-fluorofuro[3,2-b]pyridine-3-carboxamide] | ≤ 10 nM | ≤ 10 nM | 10 to 100 nM
19 | C[C@@H]1C[C@H](N)CN(c2ccncc2NC(=O)c2c(N)oc3cc(Cl)cnc23)C1 [Example 72, 2-Amino-N-{4-[(3S,5R)-3-amino-5-methyl-piperidin-1-yl]pyridin-3-yl}-6-chlorofuro[3,2-b]pyridine-3-carboxamide] | ≤ 10 nM | ≤ 10 nM | 10 to 100 nM
20 | C[C@@H]1C[C@H](N)CN(c2ccncc2NC(=O)c2c(N)oc3cc(C(F)(F)F)cnc23)C1 [Example 73, 2-Amino-N-{4-[(3S,5R)-3-amino-5-methyl-piperidin-1-yl]pyridin-3-yl}-6-(trifluoromethyl)-furo[3,2-b]pyridine-3-carboxamide] | ≤ 10 nM | ≤ 10 nM | 10 to 100 nM
21 | C[C@H]1CN(c2ccncc2NC(=O)c2c(N)oc3cccnc23)C[C@@H](N)[C@@H]1O [Example 74, 2-Amino-N-{4-[(3R,4R,5S)-3-amino-4-hydroxy-5-methylpiperidin-1-yl]pyridin-3-yl}-furo[3,2-b]pyridine-3-carboxamide] | ≤ 10 nM | ≤ 10 nM | 10 to 100 nM
22 | CC(C)c1cnc2c(C(=O)Nc3cnccc3N3C[C@@H](N)[C@H](O)[C@@H](C)C3)c(N)oc2c1 [Example 75, 2-Amino-N-{4-[(3R,4R,5S)-3-amino-4-hydroxy-5-methylpiperidin-1-yl]pyridin-3-yl}-6-isopropylfuro[3,2-b]pyridine-3-carboxamide] | ≤ 10 nM | ≤ 10 nM | 10 to 100 nM
23 | Cc1cncc(NC(=O)c2c(N)oc3cccnc23)c1N1C[C@@H](N)[C@H](O)[C@@H](C)C1 [Example 76, 2-Amino-N-{5-methyl-4-[(3R,4R,5S)-3-amino-4-hydroxy-5-methylpiperidin-1-yl]pyridin-3-yl}-furo[3,2-b]pyridine-3-carboxamide] | ≤ 10 nM | ≤ 10 nM | 100 to 1000 nM
